According to PMC4999862, “Site-specific Isopeptide Bridge Tethering of Chimeric gp41 N-terminal Heptad Repeat Helical Trimers for the Treatment of HIV-1 Infection” (Scientific Reports, 2016):
Read-outs that look alike come from different tables or passages of the source. Bridge positions count the residues as written; N and C are the ends. I, II: the chains in the order shown.

What was measured:
[1] = test system: HIV-1 BaL (subtypes B, R5)
Experimental: (§1) Briefly, 1 × 10^4 MT-2 cells were infected with an HIV-1 strain (100 times the half-maximal tissue culture infective dose) in 200 μL of culture medium with or without the serially diluted test compounds overnight. Assay plates were incubated for 72 h, after which 100 μL of culture supernatant was collected from each well and assayed for p24 antigen using ELISA as described previously. The EC50 value of each test compound was calculated using Calcusyn software.

[2] = test system: HIV-1 IIIB (subtypes B, X4)
Experimental: as §1

[3] = in vitro; assay type: cell-based; conditions: human; uninfected MT-2 cells, XTT assay; read-out: CC50 (half maximal cytotoxic concentration)
Experimental: The cytotoxic effect of the compounds on MT-2 cells was determined using the XTT assay as described previously.

[4] = target: T1, C34 (HIV-1 gp41 CHR peptide) (Human immunodeficiency virus type 1 group M subtype B, UniProt P04578); assay type: binding; conditions: CD, equimolar mixture 10 μM in PBS pH 7.4; θ222nm of 33000 for 100 % helicity
[5] = test system: HIV-1 Env-mediated cell-cell fusion (HL2/3 effector cells, TZM-bl target cells); conditions: for EC50: read-out: EC50 (nM) for cell-cell fusion, HL2/3 effector + TZM-bl target cells, 6 h at 37 °C, luciferase read-out, mean ± SD of three independent experiments
Experimental: The inhibitory activities of these peptides on HIV-1 Env-mediated cell-cell fusion were determined as described previously. Effector cells were HL2/3 cells, which stably express HIV Gag, Env, Tat, Rev, and Nef proteins at the cell surface (contributed by Drs. Barbara Felber and George Pavlakis). TZM-bl cells, which express high levels of CD4 and coreceptors, were used as target cells (contributed by Drs. John C. Kappes and Xiaoyun Wu). HL2/3 cells and TZM-b1 cells were obtained from the NIH AIDS Reference and Reagent Program. TZM-bl cells (2.5 × 10^4/well) were plated in a 96-well plate (Corning Costar) and cultured overnight at 37 °C in 5% CO2. Thereafter, serially diluted inhibitors were added (20 μL/well), followed by the addition of HL2/3 cells (7.5 × 10^4/well). After incubation for 6 h at 37 °C in 5% CO2, fusion efficiency was determined by measuring the luciferase activity using the Luciferase Assay System (Promega, Madison, WI) on a SpectraMax M5 plate reader (Molecular Devices, Sunnyvale, CA).

[6] = CD spectroscopy and thermal denaturation of chimeric N-trimers; assay type: physicochemical; conditions: for Tm (°C): CD thermal denaturation at 222 nm, 15 °C to 90 °C, PBS pH 7.4, 10 μM; for Helicity (%): CD, PBS pH 7.4, 10 μM peptide
Experimental: All measurements were performed on an MOS-450 system (BioLogic, Claix, France) at a 4.0 nm bandwidth, 0.1 nm resolution, 0.1 cm path length, 4.0 s response time and 50 nm/min scanning speed. The individual N- and C-peptides as well as their equimolar mixtures were prepared in PBS (pH 7.4) at a final concentration of 10 μM and incubated at 37 °C for 30 min. Thermal denaturation was monitored by the ellipticity change at 222 nm by application of a thermal gradient from 15 °C to 90 °C with a 2 °C interval.

[7] = target: T1, C34 (HIV-1 gp41 CHR peptide); assay: Native-PAGE of N-peptides, C34 and their complexes; assay type: binding; conditions: equimolar mixture with C34, 37 °C 30 min, PBS pH 7.2, 12% Tris-glycine gel, Coomassie
Experimental: Equimolar mixtures of C34 and N-peptides (80 μM in PBS, pH 7.2) were incubated at 37 °C for 30 min. After mixing with 1: 1 Tris-glycine native sample buffer (BioRad, Hercules, CA), the individual N- and C- peptides and the mixture (40 μM in PBS, pH 7.2) were loaded (25 μL in each well) onto 12% Tris-glycine gels. Gel electrophoresis was run under a constant voltage of 120 V at room temperature for 2.5 h. The gel was then stained with Coomassie blue R250.

[8] = test system: NL4-3 mutant (36G)V38A; conditions: read-out: EC50 against NL4-3 (36G)V38A; T20-resistant strain; MT-2 cells, p24 ELISA; mean ± SD of three independent experiments
Experimental: as §1

[9] = test system: NL4-3 mutant (36G)V38E/N42S; conditions: read-out: EC50 against NL4-3 (36G)V38E/N42S; T20-resistant strain; MT-2 cells, p24 ELISA; mean ± SD of three independent experiments
Experimental: as §1

[10] = test system: T20-sensitive and -resistant HIV-1 NL4-3 strains; conditions: read-out: EC50 values against both T20-sensitive and -resistant strains; range over the six NL4-3 strains of Table 2
Experimental: as §1

[11] = test system: HIV-1NL4-3(D36G); conditions: read-out: EC50 against NL4-3 D36G; T20-sensitive strain; MT-2 cells, p24 ELISA; mean ± SD of three independent experiments
Experimental: as §1

[12] = test system: NL4-3 mutant (36G)V38A/N42T; conditions: read-out: EC50 against NL4-3 (36G)V38A/N42T; T20-resistant strain; MT-2 cells, p24 ELISA; mean ± SD of three independent experiments
Experimental: as §1

[13] = test system: NL4-3 mutant (36G)V38A/N42D; conditions: read-out: EC50 against NL4-3 (36G)V38A/N42D; T20-resistant strain; MT-2 cells, p24 ELISA; mean ± SD of three independent experiments
Experimental: as §1

[14] = test system: NL4-3 mutant (36G)N42T/N43K; conditions: read-out: EC50 against NL4-3 (36G)N42T/N43K; T20-resistant strain; MT-2 cells, p24 ELISA; mean ± SD of three independent experiments
Experimental: as §1

[15] = Metabolic stability in kidney homogenate; assay type: in vitro ADME; conditions: rat kidney homogenate, 20 μM, reversed-phase HPLC, UV 210 nm
Experimental: (§2) Three male SD rats weighing approximately 200 g each were obtained from the Animal Center of Beijing Institute of Pharmacology & Toxicology and were used for the metabolic stability assay. Animals were treated in accordance with the Animal Welfare Act and the “Guide for the Care and Use of Laboratory Animals” (NIH Publication 86-23, revised 1985). Preparation of Samples.Calibration samples were prepared by mixing various concentrations of each test compound ranging from 4 to 150 μM in H2O with rat plasma or tissue homogenate at a volume ratio of 100 μL:100 μL (Supplementary Figs S5–S7). Each test sample (100 μL) was spiked with 100 μL of acetonitrile containing 0.1% TFA. The mixture was vortexed and centrifuged at 18,000 g for 10 min. Then, the supernatant was transferred to HPLC autosampler vials, and aliquots (10 μL) were injected into the HPLC system. […] The mobile phase was composed of solvent A (water containing 0.1% TFA) and solvent B (70% acetonitrile and 0.1% TFA). […] The HPLC analysis was performed on a Waters X-Bridge C8 column (4.6 × 250 mm, 5 μm, 300 Å) at ambient temperature upon injection of 20 μL of each standard and/or sample to obtain the chromatogram. The only exception was for (IZ14N24N)3 in plasma and kidney homogenate, which was analyzed using a Phenomenex Jupiter C4 column (4.6 × 250 mm, 5 μm, 300 Å).

[16] = Metabolic stability in liver homogenate; assay type: in vitro ADME; conditions: rat liver homogenate, 20 μM, reversed-phase HPLC, UV 210 nm
Experimental: as §2

[17] = read-out: EC50 (nM) for inhibition HIV-1BaL replication, 100 TCID50, 72 h, p24 ELISA, mean ± SD of three independent experiments
[18] = read-out: EC50 (nM) for inhibition HIV-1IIIB replication, MT-2 cells, 100 TCID50, 72 h, p24 ELISA, mean ± SD of three independent experiments

T1 sequence (P04578 628-661): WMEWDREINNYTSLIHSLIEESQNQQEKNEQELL

Substance | EC50 [1, 17] [nM] | EC50 [2, 18] [nM] | CC50 [3] [nM] | Helicity (%) of the 6HBs formed between chimeric N-peptides and C34 [4] [%] | EC50 [5] [nM] | Tm (°C) [6] [°C] | Helicity (%) [6] [%] | further results
I: Ac-EQEAIKKKIEAIEKLLQLTVWGIKQLQARILAVERYLK-NH2 / II: Ac-EQEAIKKKIEAIEKLLQLTVWGIKQLQARILAVERYLK-NH2 / III: Ac-EQEAIKKKIEAIEKLLQLTVWGIKQLQARILAVERYLK-NH2 (amide I:8-III:13, I:13-II:8, II:13-III:8) [(IZ14N24C)3] | 6.6 ± 0.2 | 4 ± 2.3 | 7700 ± 800 | 76 | 6.4 ± 1.6 | > 90 | 100 | –
I: Ac-EQEAIKKKIEAIEKLLQLTVWGIKQLQARIL-NH2 / II: Ac-EQEAIKKKIEAIEKLLQLTVWGIKQLQARIL-NH2 / III: Ac-EQEAIKKKIEAIEKLLQLTVWGIKQLQARIL-NH2 (amide I:8-III:13, I:13-II:8, II:13-III:8) [(IZ14N17)3] | 3.3 ± 2 | 1.9 ± 1.2 | 7300 ± 1700 | 74 | 21.9 ± 2.4 | > 90 | 100 | –
I: Ac-EQEAIKKKIEAIEKAIEAQQHLLQLTVWGIKQLQARIL-NH2 / II: Ac-EQEAIKKKIEAIEKAIEAQQHLLQLTVWGIKQLQARIL-NH2 / III: Ac-EQEAIKKKIEAIEKAIEAQQHLLQLTVWGIKQLQARIL-NH2 (amide I:8-III:13, I:13-II:8, II:13-III:8) [(IZ14N24N)3] | 3.2 ± 0.9 | 0.4 ± 0.01 | > 20000 | 87 | 2.79 ± 0.1 | > 90 | 100 | complex formation with C34 in N-PAGE [7]: form a stable complex with C34; EC50 [8]: 0.7 ± 0.1 nM; EC50 [9]: 1.2 ± 0.2 nM; EC50 [10]: 0.7 to 3.3 nM; EC50 [11]: 1.3 ± 0.2 nM; EC50 [12]: 1.3 ± 0.8 nM; EC50 [13]: 2.7 ± 0.1 nM; EC50 [14]: 3.3 ± 0.1 nM; stability in kidney homogenate for 24 h [15]: highly stable; stability in liver homogenate for 24 h [16]: highly stable; fold greater cell-cell fusion inhibitory activity than (IZ14N17)3 ([5]; relative to (IZ14N17)3): about 8 fold
I: Ac-IKKEQEAIKKKIEAIEKLLQLTVWGIKQLQARIL-NH2 / II: Ac-IKKEQEAIKKKIEAIEKLLQLTVWGIKQLQARIL-NH2 / III: Ac-IKKEQEAIKKKIEAIEKLLQLTVWGIKQLQARIL-NH2 (amide I:11-II:16, I:16-III:11, II:11-III:16) [(IZ17N17)3] | 9 ± 0.2 | 4.1 ± 3.1 | 4000 ± 300 | 70 | 46 ± 4.6 | > 90 | 98 | –
I: Ac-IKKKIEAIEKLLQLTVWGIKQLQARILAVERYLK-NH2 / II: Ac-IKKKIEAIEKLLQLTVWGIKQLQARILAVERYLK-NH2 / III: Ac-IKKKIEAIEKLLQLTVWGIKQLQARILAVERYLK-NH2 (amide I:4-II:9, I:9-III:4, II:4-III:9) [(IZ10N24C)3] | 11.4 ± 5.5 | 4.4 ± 0.4 | 2000 ± 400 | 63 | 13.8 ± 1.5 | > 90 | 100 | –
Enfuvirtide | – | – | – | – | – | – | – | EC50 ([1]; BaL (subtypes B, R5, 72 h)): 25.2 ± 1.9 nM; EC50 ([2]; IIIB (subtypes B, X4, 72 h)): 4.9 ± 0.6 nM
I: Ac-IKKKIEAIEKLLQLTVWGIKQLQARIL-NH2 / II: Ac-IKKKIEAIEKLLQLTVWGIKQLQARIL-NH2 / III: Ac-IKKKIEAIEKLLQLTVWGIKQLQARIL-NH2 (amide I:4-II:9, I:9-III:4, II:4-III:9) [(IZ10N17)3] | 74.7 ± 6 | 59.4 ± 9.1 | 2000 ± 200 | 73 | 190 ± 4.6 | > 90 | 75 | complex formation with C34 in N-PAGE [7]: two bands with nearly the same density; fold less potency than (IZN17R)3 in cell-cell fusion ([5]; relative to (IZN17R)3): 17 fold
I: Ac-IKKKIEAIEKAIEAQQHLLQLTVWGIKQLQARIL-NH2 / II: Ac-IKKKIEAIEKAIEAQQHLLQLTVWGIKQLQARIL-NH2 / III: Ac-IKKKIEAIEKAIEAQQHLLQLTVWGIKQLQARIL-NH2 (amide I:4-II:9, I:9-III:4, II:4-III:9) [(IZ10N24N)3] | 4.7 ± 0.5 | 1.8 ± 0.7 | 6900 ± 1000 | 80 | 28.3 ± 4.3 | > 90 | 100 | –
